Values quoted from earlier work, collected in patent US20220105100A1, “SAFE BRINZOLAMIDE AND BRIMONIDINE COMPOSITIONS WITH ENHANCED BENZALKONIUM CHLORIDE CONTENT” (Somerset Therapeutics, LLC, priority 2020, published 2022).

Settings: laboratory, experimental, and clinical studies

In the case of benzalkonium chloride, the ophthalmological side effects is listed as “causing tear film instability, loss of goblet cells, conjunctival squamous metaplasia and apoptosis, disruption of the conical epithelium barrier, and damage to deeper ocular tissues”.
